# Measurements published in article PMC11767586, “Cuphea hookeriana: Phytochemical Profile and the Cosmeceutical and Dermatological Properties of Its Active Fraction from the Whole Plant” (Molecules, 2025).
# Target: T1, mushroom tyrosinase
# T1 construct: gene PPO1
# Assay: L-dopa oxidation, absorbance at […] nm
# Type: biochemical
# Details: L-dopa 2 mM stock, phosphate pH 6.8, 37 °C, 30 min; positive control
structure (smiles),measurement,value
OC[C@H]1O[C@H](Oc2ccc(O)cc2)[C@H](O)[C@@H](O)[C@@H]1O [α-arbutin],IC50,270 µg/mL
